In ChEMBL document CHEMBL4507286 (2021):
The source made the active and inactive calls. No cut-off for these calls is given here.

Legend:
[1] = biological target: Mitogen-activated protein kinase 1 (Homo sapiens, UniProt P28482); experiment: ERK Biochemical Assay
[2] = system: Tyrosine-protein kinase ABL1 (Homo sapiens), P00519 [H396P]
[3] = system: Tyrosine-protein kinase ABL1 (Homo sapiens), P00519 [Q252H]
[4] = biological target: Activin receptor type-2A (Homo sapiens) (UniProt P27037)
[5] = biological target: Serine/threonine-protein kinase BRSK2 (Homo sapiens) (UniProt Q8IWQ3)
Chain of Serine/threonine-protein kinase BRSK2 (Homo sapiens) (Q8IWQ3 whole entry): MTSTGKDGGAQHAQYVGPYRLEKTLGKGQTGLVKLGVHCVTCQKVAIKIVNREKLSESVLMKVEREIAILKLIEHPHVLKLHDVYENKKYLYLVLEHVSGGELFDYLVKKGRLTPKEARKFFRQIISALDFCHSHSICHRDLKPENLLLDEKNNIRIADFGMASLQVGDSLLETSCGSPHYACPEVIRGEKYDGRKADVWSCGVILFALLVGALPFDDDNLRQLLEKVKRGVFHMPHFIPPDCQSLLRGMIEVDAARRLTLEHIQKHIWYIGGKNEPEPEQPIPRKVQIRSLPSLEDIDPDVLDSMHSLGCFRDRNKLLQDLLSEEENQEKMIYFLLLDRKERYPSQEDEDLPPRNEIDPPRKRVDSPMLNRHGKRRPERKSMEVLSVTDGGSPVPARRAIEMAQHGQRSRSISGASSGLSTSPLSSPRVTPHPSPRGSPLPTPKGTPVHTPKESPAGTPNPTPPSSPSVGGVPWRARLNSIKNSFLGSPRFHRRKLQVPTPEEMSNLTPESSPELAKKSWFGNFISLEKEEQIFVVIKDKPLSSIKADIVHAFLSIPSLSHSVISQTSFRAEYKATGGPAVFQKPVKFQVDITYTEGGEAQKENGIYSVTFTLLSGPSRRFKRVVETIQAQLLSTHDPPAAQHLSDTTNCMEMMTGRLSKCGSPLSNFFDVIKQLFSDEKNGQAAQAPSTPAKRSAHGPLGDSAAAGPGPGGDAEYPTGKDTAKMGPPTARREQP

[6] = biological target: Calcium/calmodulin-dependent protein kinase kinase 2 (Homo sapiens) (UniProt Q96RR4)
[7] = biological target: Dual specificity protein kinase CLK3 (Homo sapiens) (UniProt P49761)
[8] = system: Epidermal growth factor receptor (Homo sapiens), P00533 [UNDEFINED MUTATION]
[9] = biological target: Ephrin type-A receptor 5 (Homo sapiens) (UniProt P54756)
[10] = biological target: Ephrin type-A receptor 8 (Homo sapiens) (UniProt P29322)
[11] = biological target: Tyrosine-protein kinase Fes/Fps (Homo sapiens) (UniProt P07332)
[12] = biological target: Fibroblast growth factor receptor 2 (Homo sapiens) (UniProt P21802)
Chain of Fibroblast growth factor receptor 2 (Homo sapiens) (P21802 22-821 limits assumed): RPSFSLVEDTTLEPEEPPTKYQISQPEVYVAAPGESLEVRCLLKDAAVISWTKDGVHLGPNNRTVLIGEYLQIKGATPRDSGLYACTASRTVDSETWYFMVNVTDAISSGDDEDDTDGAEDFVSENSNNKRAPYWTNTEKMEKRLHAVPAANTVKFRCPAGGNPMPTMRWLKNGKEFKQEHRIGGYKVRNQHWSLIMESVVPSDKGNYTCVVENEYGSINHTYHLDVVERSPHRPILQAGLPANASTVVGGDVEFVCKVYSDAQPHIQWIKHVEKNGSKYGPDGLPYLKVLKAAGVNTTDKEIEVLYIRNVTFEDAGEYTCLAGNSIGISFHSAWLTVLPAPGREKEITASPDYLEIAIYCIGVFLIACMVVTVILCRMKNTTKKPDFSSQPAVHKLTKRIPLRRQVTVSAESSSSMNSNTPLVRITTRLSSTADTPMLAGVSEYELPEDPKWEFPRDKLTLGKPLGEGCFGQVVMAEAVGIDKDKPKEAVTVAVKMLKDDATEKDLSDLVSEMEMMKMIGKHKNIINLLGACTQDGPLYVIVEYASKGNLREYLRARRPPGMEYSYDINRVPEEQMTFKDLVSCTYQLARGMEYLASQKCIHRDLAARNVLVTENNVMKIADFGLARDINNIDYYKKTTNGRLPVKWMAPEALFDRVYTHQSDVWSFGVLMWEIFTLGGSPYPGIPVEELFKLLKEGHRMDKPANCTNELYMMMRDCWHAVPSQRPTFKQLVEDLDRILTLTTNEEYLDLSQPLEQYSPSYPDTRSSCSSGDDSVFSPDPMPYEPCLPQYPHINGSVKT

[13] = system: Receptor-type tyrosine-protein kinase FLT3 (Homo sapiens), P36888 [D835Y]
[14] = biological target: Insulin receptor-related protein (Homo sapiens) (UniProt P14616)
[15] = system: Mast/stem cell growth factor receptor Kit (Homo sapiens), P10721 [D816V]
[16] = system: Mast/stem cell growth factor receptor Kit (Homo sapiens), P10721 [V559D]
[17] = biological target: Mast/stem cell growth factor receptor Kit (Homo sapiens) (UniProt P10721)
[18] = biological target: Serine/threonine-protein kinase LATS1 (Homo sapiens) (UniProt O95835)
[19] = biological target: Leucine-rich repeat serine/threonine-protein kinase 2 (Homo sapiens) (UniProt Q5S007)
[20] = biological target: Mitogen-activated protein kinase kinase kinase kinase 5 (Homo sapiens) (UniProt Q9Y4K4)
[21] = biological target: Microtubule-associated serine/threonine-protein kinase 1 (Homo sapiens) (UniProt Q9Y2H9)
[22] = biological target: Myosin light chain kinase (Homo sapiens) (UniProt Q32MK0)
[23] = biological target: Serine/threonine-protein kinase Nek9 (Homo sapiens) (UniProt Q8TD19)
[24] = biological target: Serine/threonine-protein kinase NLK (Homo sapiens) (UniProt Q9UBE8)
[25] = biological target: Mitogen-activated protein kinase 12 (Homo sapiens) (UniProt P53778)
[26] = biological target: Serine/threonine-protein kinase PAK 6 (Homo sapiens) (UniProt Q9NQU5)
[27] = biological target: Cyclin-dependent kinase 18 (Homo sapiens) (UniProt Q07002)
[28] = biological target: Phosphatidylinositol 4,5-bisphosphate 3-kinase catalytic subunit alpha isoform (Homo sapiens) (UniProt P42336)
[29] = biological target: Membrane-associated tyrosine- and threonine-specific cdc2-inhibitory kinase (Homo sapiens) (UniProt Q99640)
[30] = biological target: cGMP-dependent protein kinase 1 (Homo sapiens) (UniProt Q13976)
Chain of cGMP-dependent protein kinase 1 (Homo sapiens) (Q13976 whole entry): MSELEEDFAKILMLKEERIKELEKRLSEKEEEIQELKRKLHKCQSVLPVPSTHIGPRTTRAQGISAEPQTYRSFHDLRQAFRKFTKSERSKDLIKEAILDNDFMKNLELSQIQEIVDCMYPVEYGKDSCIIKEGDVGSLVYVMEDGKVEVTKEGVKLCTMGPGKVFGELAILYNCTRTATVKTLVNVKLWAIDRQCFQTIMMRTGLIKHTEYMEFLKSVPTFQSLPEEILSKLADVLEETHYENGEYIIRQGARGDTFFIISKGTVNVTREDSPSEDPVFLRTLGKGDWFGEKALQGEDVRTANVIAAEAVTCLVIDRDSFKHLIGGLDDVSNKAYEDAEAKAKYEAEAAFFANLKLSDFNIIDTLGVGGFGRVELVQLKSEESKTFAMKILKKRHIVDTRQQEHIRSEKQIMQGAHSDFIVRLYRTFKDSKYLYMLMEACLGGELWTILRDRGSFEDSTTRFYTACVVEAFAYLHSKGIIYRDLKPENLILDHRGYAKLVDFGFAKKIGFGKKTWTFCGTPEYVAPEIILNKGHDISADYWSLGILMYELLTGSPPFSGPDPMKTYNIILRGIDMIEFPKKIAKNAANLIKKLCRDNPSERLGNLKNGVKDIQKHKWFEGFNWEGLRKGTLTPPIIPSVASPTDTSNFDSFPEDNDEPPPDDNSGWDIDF

[31] = system: Proto-oncogene tyrosine-protein kinase receptor Ret (Homo sapiens), P07949 [M918T]
[32] = biological target: Serine/threonine-protein kinase RIO3 (Homo sapiens) (UniProt O14730)
[33] = biological target: Rho-associated protein kinase 1 (Homo sapiens) (UniProt Q13464)
[34] = biological target: Ribosomal protein S6 kinase alpha-6 (Homo sapiens) (UniProt Q9UK32)
[35] = biological target: Ribosomal protein S6 kinase beta-1 (Homo sapiens) (UniProt P23443)
[36] = biological target: SRSF protein kinase 1 (Homo sapiens) (UniProt Q96SB4)
Chain of SRSF protein kinase 1 (Homo sapiens) (Q96SB4 whole entry): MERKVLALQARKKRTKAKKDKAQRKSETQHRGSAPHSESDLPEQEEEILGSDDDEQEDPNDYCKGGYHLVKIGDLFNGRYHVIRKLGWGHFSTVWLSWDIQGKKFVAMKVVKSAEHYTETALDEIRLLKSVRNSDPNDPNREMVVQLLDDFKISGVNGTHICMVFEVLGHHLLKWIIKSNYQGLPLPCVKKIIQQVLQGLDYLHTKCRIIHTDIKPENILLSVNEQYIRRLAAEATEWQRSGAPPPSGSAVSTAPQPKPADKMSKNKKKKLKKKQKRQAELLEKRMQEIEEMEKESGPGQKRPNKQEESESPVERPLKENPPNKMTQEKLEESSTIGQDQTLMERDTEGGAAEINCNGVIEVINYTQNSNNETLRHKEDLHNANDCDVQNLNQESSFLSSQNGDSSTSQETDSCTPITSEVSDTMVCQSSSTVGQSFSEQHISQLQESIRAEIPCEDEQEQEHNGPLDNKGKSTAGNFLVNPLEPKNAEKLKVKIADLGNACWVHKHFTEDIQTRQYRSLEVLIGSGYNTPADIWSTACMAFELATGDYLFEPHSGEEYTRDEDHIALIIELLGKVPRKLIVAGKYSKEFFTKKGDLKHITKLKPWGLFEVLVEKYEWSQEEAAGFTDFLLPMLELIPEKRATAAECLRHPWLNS

[37] = biological target: Mitogen-activated protein kinase kinase kinase 7 (Homo sapiens) (UniProt O43318)
Chain of Mitogen-activated protein kinase kinase kinase 7 (Homo sapiens) (O43318 whole entry): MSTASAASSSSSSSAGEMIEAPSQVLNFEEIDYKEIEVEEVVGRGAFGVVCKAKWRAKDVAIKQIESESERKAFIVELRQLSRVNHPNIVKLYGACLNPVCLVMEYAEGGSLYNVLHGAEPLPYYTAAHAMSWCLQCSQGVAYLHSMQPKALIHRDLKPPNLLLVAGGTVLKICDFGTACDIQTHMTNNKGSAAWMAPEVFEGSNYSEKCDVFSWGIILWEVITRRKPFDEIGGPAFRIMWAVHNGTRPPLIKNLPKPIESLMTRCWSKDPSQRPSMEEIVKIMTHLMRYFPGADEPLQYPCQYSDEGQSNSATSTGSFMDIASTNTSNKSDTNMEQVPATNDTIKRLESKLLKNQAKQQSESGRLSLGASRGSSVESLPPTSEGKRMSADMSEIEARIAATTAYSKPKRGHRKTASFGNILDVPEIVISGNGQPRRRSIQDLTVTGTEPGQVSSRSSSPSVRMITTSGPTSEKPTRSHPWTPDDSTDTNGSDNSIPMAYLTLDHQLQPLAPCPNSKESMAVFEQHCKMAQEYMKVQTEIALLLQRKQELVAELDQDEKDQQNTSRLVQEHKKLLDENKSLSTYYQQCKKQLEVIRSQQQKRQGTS

[38] = biological target: Angiopoietin-1 receptor (Homo sapiens) (UniProt Q02763)
[39] = biological target: Serine/threonine-protein kinase tousled-like 2 (Homo sapiens) (UniProt Q86UE8)
[40] = biological target: Non-receptor tyrosine-protein kinase TNK1 (Homo sapiens) (UniProt Q13470)
[41] = biological target: Tyrosine-protein kinase TXK (Homo sapiens) (UniProt P42681)
[42] = biological target: Phosphatidylinositol 3-kinase catalytic subunit type 3 (Homo sapiens) (UniProt Q8NEB9)
Chain of Phosphatidylinositol 3-kinase catalytic subunit type 3 (Homo sapiens) (Q8NEB9 whole entry): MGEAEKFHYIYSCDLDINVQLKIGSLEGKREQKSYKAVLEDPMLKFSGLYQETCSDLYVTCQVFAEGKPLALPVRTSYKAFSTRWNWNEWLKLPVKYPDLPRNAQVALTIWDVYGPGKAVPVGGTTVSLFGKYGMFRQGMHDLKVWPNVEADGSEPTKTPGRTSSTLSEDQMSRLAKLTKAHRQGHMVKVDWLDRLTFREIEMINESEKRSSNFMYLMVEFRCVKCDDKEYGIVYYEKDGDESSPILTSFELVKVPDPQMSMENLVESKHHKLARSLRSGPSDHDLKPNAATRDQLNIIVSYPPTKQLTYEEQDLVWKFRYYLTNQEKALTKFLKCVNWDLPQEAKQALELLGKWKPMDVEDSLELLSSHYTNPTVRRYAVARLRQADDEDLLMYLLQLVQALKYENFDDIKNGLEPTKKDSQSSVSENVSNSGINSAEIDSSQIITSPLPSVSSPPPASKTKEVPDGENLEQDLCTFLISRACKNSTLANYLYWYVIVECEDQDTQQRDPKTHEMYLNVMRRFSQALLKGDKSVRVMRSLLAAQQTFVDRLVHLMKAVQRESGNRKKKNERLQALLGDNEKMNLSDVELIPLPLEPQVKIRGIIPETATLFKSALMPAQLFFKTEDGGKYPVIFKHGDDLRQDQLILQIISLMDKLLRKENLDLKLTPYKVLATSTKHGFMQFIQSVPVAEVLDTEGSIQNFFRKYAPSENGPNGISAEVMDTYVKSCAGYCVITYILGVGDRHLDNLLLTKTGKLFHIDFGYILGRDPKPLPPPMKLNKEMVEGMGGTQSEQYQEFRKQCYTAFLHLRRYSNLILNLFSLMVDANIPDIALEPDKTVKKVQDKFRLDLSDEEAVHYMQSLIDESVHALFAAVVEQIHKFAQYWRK

[43] = biological target: Tyrosine-protein kinase Yes (Homo sapiens) (UniProt P07947)
[44] = biological target: Mitogen-activated protein kinase kinase kinase 19 (Homo sapiens) (UniProt Q56UN5)
[45] = biological target: Alpha-2B adrenergic receptor (Homo sapiens) (UniProt P18089); conditions: Compound concentration 10.0 uM
[46] = Compound concentration 1000.0 nM
[47] = Compound concentration 100.0 nM

Chain of Mitogen-activated protein kinase 1 (P28482 whole entry): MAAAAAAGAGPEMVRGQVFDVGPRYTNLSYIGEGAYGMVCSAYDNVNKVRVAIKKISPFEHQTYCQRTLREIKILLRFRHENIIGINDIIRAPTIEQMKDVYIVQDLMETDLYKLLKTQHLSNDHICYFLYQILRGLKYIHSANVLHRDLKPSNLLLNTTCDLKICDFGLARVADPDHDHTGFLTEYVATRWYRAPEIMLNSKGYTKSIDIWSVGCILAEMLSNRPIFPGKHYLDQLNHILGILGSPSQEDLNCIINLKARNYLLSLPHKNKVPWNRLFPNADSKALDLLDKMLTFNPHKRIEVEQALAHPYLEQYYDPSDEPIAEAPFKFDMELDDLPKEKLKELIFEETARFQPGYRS

## C[C@H](NC(=O)Nc1cc2[nH]ncc2c(CO)n1)c1ccccn1 [ERKi-NC]
[1]
  IC50: 1.78 µM (not active)
[2]; [46]
  residual activity: 72.5%
[3]; [46]
  residual activity: 42.7%
[4]; [46]
  residual activity: 85.6%
[5]; [46]
  residual activity: 88%
[6]; [46]
  residual activity: 85.4%
[7]; [46]
  residual activity: 100%
[8]; [46]
  residual activity: 100%
[9]; [46]
  residual activity: 100%
[10]; [46]
  residual activity: 100%
[11]; [46]
  residual activity: 100%
[12]; [46]
  residual activity: 62%
[13]; [46]
  residual activity: 96.8%
[14]; [46]
  residual activity: 100%
[15]; [46]
  residual activity: 100%
[16]; [46]
  residual activity: 100%
[17]; [46]
  residual activity: 71.5%
[18]; [46]
  residual activity: 100%
[19]; [46]
  residual activity: 71.3%
[20]; [46]
  residual activity: 99.6%
[21]; [46]
  residual activity: 100%
[22]; [46]
  residual activity: 100%
[23]; [46]
  residual activity: 100%
[24]; [46]
  residual activity: 66.3%
[25]; [46]
  residual activity: 48.4%
[26]; [46]
  residual activity: 100%
[27]; [46]
  residual activity: 100%
[28]; [46]
  residual activity: 100%
[29]; [46]
  residual activity: 100%
[30]; [46]
  residual activity: 90.7%
[31]; [46]
  residual activity: 100%
[32]; [46]
  residual activity: 90.7%
[33]; [46]
  residual activity: 66%
[34]; [46]
  residual activity: 82.7%
[35]; [46]
  residual activity: 58.3%
[36]; [46]
  residual activity: 100%
[37]; [46]
  residual activity: 100%
[38]; [46]
  residual activity: 71.1%
[39]; [46]
  residual activity: 88.4%
[40]; [46]
  residual activity: 87.8%
[41]; [46]
  residual activity: 51%
[42]; [46]
  residual activity: 97%
[43]; [46]
  residual activity: 100%
[44]; [46]
  residual activity: 100%
[45]
  inhibition: -0.465%

## C[C@@H](NC(=O)Nc1cc2[nH]ncc2c(CO)n1)c1ccccc1 [ERKi]
[1]
  IC50: 0.0018 µM (active)
[2]; [47]
  residual activity: 94.6%
[3]; [47]
  residual activity: 88.4%
[4]; [47]
  residual activity: 74.7%
[5]; [47]
  residual activity: 89.3%
[6]; [47]
  residual activity: 75.2%
[7]; [47]
  residual activity: 82.2%
[8]; [47]
  residual activity: 94.6%
[9]; [47]
  residual activity: 87.9%
[10]; [47]
  residual activity: 89.8%
[11]; [47]
  residual activity: 100%
[12]; [47]
  residual activity: 100%
[13]; [47]
  residual activity: 86.2%
[14]; [47]
  residual activity: 82.9%
[15]; [47]
  residual activity: 82.7%
[16]; [47]
  residual activity: 88.3%
[17]; [47]
  residual activity: 89.5%
[18]; [47]
  residual activity: 59.3%
[19]; [47]
  residual activity: 94.6%
[20]; [47]
  residual activity: 86.8%
[21]; [47]
  residual activity: 93.9%
[22]; [47]
  residual activity: 100%
[23]; [47]
  residual activity: 77.5%
[24]; [47]
  residual activity: 100%
[25]; [47]
  residual activity: 80.7%
[26]; [47]
  residual activity: 63.5%
[27]; [47]
  residual activity: 100%
[28]; [47]
  residual activity: 86%
[29]; [47]
  residual activity: 99.6%
[30]; [47]
  residual activity: 52.4%
[31]; [47]
  residual activity: 100%
[32]; [47]
  residual activity: 100%
[33]; [47]
  residual activity: 64.7%
[34]; [47]
  residual activity: 96.8%
[35]; [47]
  residual activity: 90%
[36]; [47]
  residual activity: 85.5%
[37]; [47]
  residual activity: 82.6%
[38]; [47]
  residual activity: 100%
[39]; [47]
  residual activity: 86.9%
[40]; [47]
  residual activity: 98.1%
[41]; [47]
  residual activity: 100%
[42]; [47]
  residual activity: 71.2%
[43]; [47]
  residual activity: 96.9%
[44]; [47]
  residual activity: 86.2%
[45]
  inhibition: -1.5%
